Read-outs that look alike come from different tables or passages of the source.
Molecular target: JAK2 KD (Homo sapiens, UniProt O60674)
Assay: Recombinant JAK2 KD protein levels in transfected Expi293F cells
Type: cell-based

JAK2 KD, sequence (O60674 840-1132): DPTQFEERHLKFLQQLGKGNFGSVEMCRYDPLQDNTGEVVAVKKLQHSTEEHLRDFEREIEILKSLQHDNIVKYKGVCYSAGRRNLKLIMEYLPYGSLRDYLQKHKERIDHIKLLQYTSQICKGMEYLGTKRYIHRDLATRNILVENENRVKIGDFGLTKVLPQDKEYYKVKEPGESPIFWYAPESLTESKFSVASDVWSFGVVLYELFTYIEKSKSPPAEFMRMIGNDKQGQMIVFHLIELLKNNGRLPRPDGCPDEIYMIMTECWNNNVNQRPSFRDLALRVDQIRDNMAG

JAK2 KD expression increase over that of ruxolitinib alone (HDAC inhibitor added alongside 1 μM ruxolitinib, 2 mM and 4 mM) | JAK2 KD expression increase over that of ruxolitinib alone | Structure (SMILES)
four-fold | – | CCCC(CCC)C(=O)O [valproic acid]
– | four-fold | CCCC(=O)O [butyric acid]
